Read-outs that look alike come from different tables or passages of the source. Where a SMILES comes first, the peptide text is derived from it. Where no end group is shown, it is not given here.
Legend:
α-glucosidase [1] = target: α-glucosidase (Saccharomyces cerevisiae, UniProt P53341); experiment: α-glucosidase inhibitory effect (pNPG); assay type: biochemical; details: synthetic peptides; PBS pH 6.8, 37 °C, 15 min pre-incubation, 30 min with pNPG, absorbance 405 nm; median (25%, 75% quartiles), at least three experiments; read-out: IC50, α-glucosidase inhibition
Chain of α-glucosidase (Saccharomyces cerevisiae, UniProt P53341) (P53341 whole entry): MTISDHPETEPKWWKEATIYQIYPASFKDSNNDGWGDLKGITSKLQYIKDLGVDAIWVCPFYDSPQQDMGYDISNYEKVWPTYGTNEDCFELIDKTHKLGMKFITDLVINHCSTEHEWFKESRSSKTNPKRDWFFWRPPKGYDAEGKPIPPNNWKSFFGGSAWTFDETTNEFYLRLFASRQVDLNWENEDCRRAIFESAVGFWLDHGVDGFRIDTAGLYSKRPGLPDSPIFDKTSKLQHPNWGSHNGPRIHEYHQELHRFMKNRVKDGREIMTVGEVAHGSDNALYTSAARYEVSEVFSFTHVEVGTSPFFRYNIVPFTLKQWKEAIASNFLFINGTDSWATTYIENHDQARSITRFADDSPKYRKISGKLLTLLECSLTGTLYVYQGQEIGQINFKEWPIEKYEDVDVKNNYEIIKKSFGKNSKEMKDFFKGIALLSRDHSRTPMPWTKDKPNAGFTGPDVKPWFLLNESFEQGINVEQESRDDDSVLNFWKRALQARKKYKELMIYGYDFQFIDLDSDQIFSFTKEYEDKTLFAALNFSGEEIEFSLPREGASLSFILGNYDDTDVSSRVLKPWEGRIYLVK
Method: Distillers’ grains were generously supplied by the Suzhou Bridge Wine & Spirits Co. (Suzhou, China). Peptides YPLPR, AFEPLR, and NDPF (purity ≥ 98%) were composed by All Peptide Biotechnology Co., Ltd. (Hangzhou, China). Dulbecco’s Modified Eagle Medium (DMEM) medium, embracing 10.0% fetal bovine serum (FBS) and 1.0 mol/L phosphate buffer (PBS) was bought from Gibco (Life Technologies, Inc., Carlsbad, CA, USA). Alkaline protease (2.4 U/g), penicillin-streptomycin (100.0 U/mL penicillin-100.0 […] streptomycin), 3-(4,5-dimethylthiazol-2)-2,5-diphenyltetrazolium bromide (MTT) powder, 2′,7′-dichlorofluorescence yellow diacetate (DCFH-DA), and trypsin solution were purchased from Solarbio (Beijing Solarbio Science and Technology Co., Ltd., Beijing, China). The HepG2 cell line was acquired from the Kunming Institute of Animal Science, Chinese Academy of Sciences (Kunming, China). Rosiglitazone, insulin, ABTS, DPPH, α-glucosidase derived from Saccharomyces cerevisiae (type I, protein content of at least 30.0 units per milligram), and p-nitrobenzene α-D-glucopyranoside (pNPG, with a minimum purity of 99.0%) were purchased from Sigma-Aldrich (located in Shanghai, China). The glucose kit was purchased from Nanjing Jiancheng Co. (Nanjinng, China). […]
The inhibitory effect on α-glucosidase activity of the protein hydrolysates from distillers’ grains or three selected peptides was assessed following the methodology outlined by Zhang et al. (2018) with slight modifications, and the concrete method is shown in the Supplementary Materials. […]
The inhibitory effect on α-glucosidase activity of the protein hydrolysates from distillersʹ grains or three selected peptides was assessed following the methodology outlined by Zhang et al. (2018) with slight modifications. […]
The absorbance of the resulting reaction mixture was measured at a wavelength […]
of 405 nm using an enzyme-labeled instrument. […] In this formula, ʺAʺ represents the absorbance value. […]
The antioxidant properties of vinasse hydrolysates or three screening peptides were evaluated by DPPH and ABTS free radical scavenging […]

HepG2 cells [2] = experiment: MTT cytotoxicity of samples and insulin in HepG2 cells
Text: (§1) The MTT method was adopted to assess the impact of samples and insulin on cell viability, helping determine the optimal concentrations of insulin and the samples. The experimental protocol for improving insulin resistance followed previous methods. Details are provided in the Supplementary Materials. In this experiment, various groups were established, incorporating the blank control group (K), model group (M), peptide sample groups, and the positive control group (treated with rosiglitazone).
(§2) […] of the main pathogenic mechanisms of type 2 diabetes mellitus, and the liver is an important site for insulin to function. […] As the cellular insulin resistance condition arises, the utilization of glucose by the cells decreases, and the consumption of glucose decreases. Therefore, insulin resistance is usually expressed by the consumption of glucose in studies. Using the MTT method, this study explored the effect of different concentrations of insulin on cellular glucose consumption after 24 h of action with HepG2 cells.

HepG2 cells [3] = experiment: H2O2 effect on cell viability (cell damage model); assay type: cell-based, human; details: H2O2 1.2 mmol/L; median (25%, 75% quartiles), n = 4
Text: Excessive ROS may attack normal cells or biological macromolecules and undergo oxidative stress, causing severe damage to cellular structures, which causes many diabetic complications and chronic diseases. Accordingly, in this study, the scavenging activities of ABTS and DPPH radicals of bioactive peptides were not only investigated by in vitro experiments, but their antioxidant activity was also further investigated at the cellular level. The cell damage rate of the H2O2-induced cell damage model was generally around 50%. […] When the concentration of H2O2 was 1.2 mmol/L, the cell viability rate was 56.38 (50.33, 68.00) %, so the concentration of H2O2 of 1.2 mmol/L established the cell damage model in this study. […] Consistent with 3.6, YPLPR, AFEPLR, and NDPF were used at 1.0 mmol/L for subsequent experiments.

HepG2 cells [4] = experiment: H2O2-induced intracellular ROS scavenging in HepG2 cells (DCFH-DA, flow cytometry); assay type: cell-based, human; details: VC 10.0 µmol/L 24 h, then 1.2 mmol/L H2O2 seven hours, median (25%, 75% quartiles), n = 4, model M 139.46 %, blank K 101 %
Method: According to Liu et al. (2020), the H2O2-induced scavenging activity of reactive oxygen species was evaluated. In this experiment, various groups were established, including the blank, sample, positive control, and model groups. Refer to the Supplementary Materials for specific information. […]
and NDPF concentrations were 1.0 mmol/L, and the positive control rosiglitazone concentration was 20.0 µmol/L. At the end of the incubation, the glucose content in the culture medium was measured using the glucose oxidase-peroxidase method kit by Nanjing Jiancheng Biological Co., Ltd., and the glucose content was calibrated by measuring the cell activity using the MTT […]
7. Evaluation of scavenging capacity against intracellular ROS
HepG2 cells (2.0 mL/well, 1×10^4 cells/well) were inoculated in 6-well plate and cultured overnight. VC (10.0 µmol/L) or peptides YPLPR, AFEPLR, and NDPF (1.0 mmol/L) were added to each well, and the cells were incubated for an additional 24 hours. Following the incubation, the culture medium was aspirated, and the cells were washed thoroughly with PBS twice. Subsequently, cells in all experimental groups, except for the control group, were exposed to 1.2 mmol/L H2O2 for seven hours. […] After incubation, the cells were rinsed twice with culture medium devoid of FBS and analyzed using a Millipore flow cytometer (Guava easy Cyte 6-2L, Billerica, MA) within 30 minutes.

HepG2 cells [5] = experiment: Glucose consumption of insulin-resistant HepG2 cells; assay type: cell-based, human; details: 20.0 µmol/L positive control, 24 h, after 25.0 µmol/L insulin 24 h; median (25%, 75% quartiles), n = 6; model group M 6.08 (5.80, 6.81) mmol/L
Text: as §1, §2

α-glucosidase [6] = details: cited from earlier work; for α-glucosidase activity inhibition: peptides from Spanish dry-cured ham
Text: Since these peptides have small molecular weights, they are more likely to be absorbed intact by the gastrointestinal tract after oral ingestion, thereby exerting systemic or local effects. Consequently, the study of bioactive peptides has progressively emerged as a prominent research area in recent years. Numerous studies have dem ... || α-glucosidase is a membrane-associated enzyme. Inhibition of α-glucosidase activity can reduce carbohydrate hydrolysis, thus reducing sugar absorption and effectively controlling diabetes.. […] In the study on rice wine peptides, the α-glucosidase inhi ... || Due to the fact that α-glucosidase is a more important and directly regulated target in the treatment of diabetes, the potential inhibitory activity of α-glucosidase was used as the main condition of inquiry for further analysis. […] Therefore, this peptide was selected as a positive control to facilitate the analysis of the current study, and its affinity grading after molecular docking with α-glucosidase was −9.1 kcal/mol. Four peptides, YPLPR, AFEPLR, NDPF, and WN ... || (+ 1 further places)

[7] = parameters: method as in doi:10.1016/j.jff.2016.08.021; details: at different concentrations (5–150 mg/mL); cited from earlier work
[8] = previously screened from rice wine peptides; no reference number printed in the sentence; read-out: IC50, ABTS radical scavenging capacity; cited from earlier work
[9] = previously screened from rice wine peptides; no reference number printed in the sentence; read-out: IC50, DPPH radical scavenging capacity; cited from earlier work
HepG2 cells [10] = details: cited from earlier work; for Glucose consumption in HepG2 cells compared to the model group: walnut-derived peptides; for Insulin resistance in HepG2 cells exposed to high glucose: from goat milk casein hydrolysate
Text: In this study, the effect of YPLPR, AFEPLR, and NDPF on the glucose consumption of HepG2 cells in an insulin resistance state was investigated. […] The glucose consumption of peptides YPLPR, AFEPLR, and NDPF were 9.56 (9.37, 9.83), 10.56 ...

HepG2 cells [11] = experiment: Effect of insulin concentration on glucose consumption of HepG2 cells; assay type: cell-based, human; details: insulin 25.0 µmol/L, 24 h
Text: Details are provided in the Supplementary Materials.

[12] = at 1.0 mmol/mL (so in the source)
[13] = peptides from malt, read-out: IC50, α-glucosidase inhibitory activity
[14] = peptides from rice wine, read-out: IC50, α-glucosidase depressant activity

Q: With `NC(=O)C[C@H](N)C(=O)N[C@@H](CC(=O)O)C(=O)N1CCC[C@H]1C(=O)N[C@@H](Cc1ccccc1)C(=O)O` [NDPF] (H-NDPF-OH) as the molecule, how does the IC50 (α-glucosidase [1]) read?
A: 6.24 mM

Q: And the “Cytotoxicity (MTT)” value (HepG2 cells [2]; [12])?
A: no cytotoxicity

Q: For `OO` [Peptide H2O2], which Cell viability rate (HepG2 cells [3]) is on record?
A: 56.38 (50.33, 68.00) %

Q: For `O=C1O[C@H]([C@@H](O)CO)C(O)=C1O` [VC], which “Relative intracellular ROS content” value (HepG2 cells [4]) is on record?
A: 92.03 (90.83, 98.11) %

Q: With `CN(CCOc1ccc(CC2SC(=O)NC2=O)cc1)c1ccccn1` (stereo not drawn) [rosiglitazone] as the molecule, how does the Glucose consumption (HepG2 cells [5]) read?
A: 9.09 (8.29, 9.23) mmol/L

Q: With “AEEEYPDL [peptide from Spanish dry-cured ham]” as the molecule, how does the α-glucosidase activity inhibition (α-glucosidase [6]) read?
A: effectively inhibited α-glucosidase activity

Q: With AFEPLR [AFEPLR] as the molecule, how does the IC50 (α-glucosidase [1]) read?
A: 8.69 mM

Q: What about the “Cytotoxicity (MTT)” value (HepG2 cells [2]; [12]) of the same molecule?
A: no cytotoxicity

Q: With AGGFR [peptide from malt] as the molecule, how does the IC50 (α-glucosidase [6]; [13]) read?
A: 8.66 ± 0.33 mM

Q: For “AVPYPQ [peptide identified in the research of Pepe et al. (2016)]”, which antioxidant activity [7] is on record?
A: showed antioxidant activity

Q: With “EAMAPK [peptide identified in the research of Pepe et al. (2016)]” as the molecule, how does the antioxidant activity [7] read?
A: showed antioxidant activity

Q: What does the source list for “FTYPR [peptide previously screened from rice wine peptides by molecular simulation]”?
A: IC50 (α-glucosidase [6]; [14]): 3.57 mM; IC50 [8]: 2.64 mM; IC50 [9]: 6.09 mM

Q: Which IC50 (α-glucosidase [6]; [13]) does the source give for LDLQR [peptide from malt] here?
A: 8.59 ± 0.25 mM

Q: For LDNFR [peptide from malt], which IC50 (α-glucosidase [6]; [13]) is on record?
A: 9.21 ± 0.22 mM

Q: Which α-glucosidase activity inhibition (α-glucosidase [6]) does the source give for “LGVGG [peptide from Spanish dry-cured ham]” here?
A: effectively inhibited α-glucosidase activity

Q: Which “Glucose consumption in HepG2 cells compared to the model group” value (HepG2 cells [10]) does the source give for LRYL [walnut-derived peptide] here?
A: increased glucose consumption

Q: With LVRL [walnut-derived peptide] as the molecule, how does the “Glucose consumption in HepG2 cells compared to the model group” value (HepG2 cells [10]) read?
A: increased glucose consumption

Q: With “NPWDQVKR [peptide extracted from goat milk casein hydrolysate]” as the molecule, how does the “Insulin resistance in HepG2 cells exposed to high glucose” value (from here on “Insulin resistance”) (HepG2 cells [10]) read?
A: improvement in insulin resistance

Q: Which “Insulin resistance” value (HepG2 cells [10]) does the source give for “QEPVLGPVRGPFP [peptide extracted from goat milk casein hydrolysate]” here?
A: improvement in insulin resistance

Q: With “QFTPR [peptide from previous studies on rice wine]” as the molecule, how does the IC50 (α-glucosidase [6]; [14]) read?
A: 9.18 mM

Q: Which “Insulin resistance” value (HepG2 cells [10]) does the source give for “SDIPNPIGSE [peptide extracted from goat milk casein hydrolysate]” here?
A: improvement in insulin resistance

Q: With “SSLFR [peptide from previous studies on rice wine]” as the molecule, how does the IC50 (α-glucosidase [6]; [14]) read?
A: 7.73 mM

Q: Which “Glucose consumption in HepG2 cells compared to the model group” value (HepG2 cells [10]) does the source give for VLLALVLLR [walnut-derived peptide] here?
A: increased glucose consumption

Q: For “WLRL [WLRL peptide from soybean protein, positive control]”, which “inhibitory effect toward α-glucosidase” value (α-glucosidase [6]; peptide from soybean protein) is on record?
A: good inhibitory effect toward α-glucosidase

Q: What does the source list for YPLPR [YPLPR]?
A: IC50 (α-glucosidase [1]): 5.31 mM; Cytotoxicity (MTT) (HepG2 cells [2]; [12]): no cytotoxicity

Q: Which “Cytotoxicity (MTT)” value (HepG2 cells [2]; insulin 25.0 µmol/L) does the source give for “insulin: used to establish the insulin resistance model” here?
A: not cytotoxic

Q: What about the “Cellular glucose consumption compared with the group without insulin” value (HepG2 cells [11]) of the same molecule?
A: significantly reduced

Reference: publication PMC11085682, “Identification of Novel Peptides in Distillers’ Grains as Antioxidants, α-Glucosidase Inhibitors, and Insulin Sensitizers: In Silico and In Vitro Evaluation” (Nutrients, 2024)
